Assay results as given in patent publication US9795602B2, “Polycyclic-carbamoylpyridone compounds and their pharmaceutical use” (Gilead Sciences, Inc., priority 2014, dated 2017).
Like-named read-outs stand apart in the source and are kept apart here.

Key:
[1] = system: wild-type HIV-1; test: Antiviral assay in MT-2 cells, wild-type HIV-1; assay type: cell-based; details: Human immunodeficiency virus 1, 120 h; MT2 cells, wild-type HIV-1, 5 days; read-out: wt
Protocol: (§1) For the antiviral assay utilizing MT-2 cells, 50 μL of 2× test concentration of 3-fold serially diluted compound in culture medium with 10% FBS was added to each well of a 96-well plate (9 concentrations) in triplicate. MT-2 cells were infected with wild-type or mutant variants of HIV-1 for 3 hours using a volume of viral inoculum determined to produce 90% cell killing. Fifty microliters of infected cell suspension in culture medium with 10% FBS (˜1.5×10^4 cells) was then added to each well containing 50 μL of serially diluted compound. The plates with HIV-infected cultures were then incubated at 37° C. for 5 days in the presence of the tested compounds. After 5 days of incubation, 100 μL of CellTiter-Glo™ Reagent (catalog # G7571, Promega Biosciences, Inc., Madison, Wis.) was added to each well. Cell lysis was carried out by incubating at room temperature for 10 min followed by a chemiluminescence read-out.
(§2) The chemiluminescence readout from the 10-point antiviral dose response was analyzed directly by curve fitting with equation (I) to determine the EC50.
(§3) where y=Cell Survival, M=maximum cell survival enabled by drug protection, H=baseline cell survival without drug protection, n=Hill coefficient of the antiviral dose response, m=Hill coefficient of the cytotoxicity dose response, and [I]=inhibitor concentration.
(§4) EC50 values (mean±standard deviation) were calculated from at least three independent experiments performed in triplicate. The fold-change in antiviral activity of tested compounds was calculated as a ratio of the mean EC50 for each mutant virus divided by the mean EC50 of the control WT virus.

[2] = system: HIV-IIIb; test: Antiviral assay in MT4 cells; assay type: cell-based; details: Human immunodeficiency virus 1, IIIB, MT4, 120 h, MT4 cells, HIV-IIIb, 5 days; read-out: EC50
Protocol: 1 mL aliquots of 2×10^6 MT4 cells are pre-infected for 1 and 3 hours respectively at 37° C. with 25 μL (MT4) or of either cell growth medium (mock-infected) or a fresh 1:250 dilution of an HIV-IIIb concentrated ABI stock (0.004 m.o.i. for MT4 cells). Infected and uninfected cells are diluted in cell growth medium and 35 μL of 2000 (for MT4) cells is added to each well of the assay plates.
(§5) Assay plates were then incubated in a 37° C. incubator. After 5 days of incubation, 25 μL of 2× concentrated CellTiter-Glo™ Reagent (catalog # G7573, Promega Biosciences, Inc., Madison, Wis.) was added to each well of the assay plate. Cell lysis was carried out by incubating at room temperature for 2-3 minutes, and then chemiluminescence was read using the Envision reader (PerkinElmer).

[3] = system: HIV-1 N155H/Q148R; assay type: cell-based; details: MT2 cells; mean EC50 mutant / mean EC50 wt
Protocol: as §1, §2, §3, §4

[4] = system: HIV-1 E92Q/N155H; assay type: cell-based; details: MT2 cells; mean EC50 mutant / mean EC50 wt
Protocol: as §1, §2, §3, §4

[5] = system: HIV-1 E138K/Q148K; assay type: cell-based; details: MT2 cells; mean EC50 mutant / mean EC50 wt
Protocol: as §1, §2, §3, §4

[6] = system: HIV-1 G140S/Q148R; assay type: cell-based; details: MT2 cells; mean EC50 mutant / mean EC50 wt
Protocol: as §1, §2, §3, §4

[7] = target: PXR (NR1I2) (Homo sapiens (Human), UniProt O75469); test: Human PXR activation assay (luciferase reporter, DPX2 cells); assay type: cell-based; details: human
Protocol: Luciferase Reporter Gene Assay.
A stably transformed tumor cell line (DPX2) was plated on 96-well microtiter plates. […]. The number of viable cells was determined and the reporter gene activity was assessed. […]

[8] = Cytotoxicity (CC50) in MT4 cells, mock-infected; assay type: cell-based; details: human
Protocol: as §5, with “Infected and uninfected cells are diluted in cell growth medium and 35 μL of 2000 (for MT4) cells is added to each well of the assay plates. Assay” for “Assay”

[9] = Plasma protein binding (equilibrium dialysis); assay type: in vitro ADME; details: human, plasma (sodium EDTA) versus buffer; 2 μM in plasma vs. buffer, 24 hours at 37° C.; read-out: % Free HP/Buffer
Protocol: Plasma protein binding was determined using a HTD96b equilibrium dialyzer with a plate base, stainless steel pressure plate and Teflon bock. 9 Teflon bars, labeled sequentially from A through I, were assembled with two stainless steel connecting rods. Membranes were placed between two Teflon bars, with the membrane placed approximately 2 mm below the top edge of the bar and the lower membrane edge overlapped the bottom of all wells. The membrane was soaked for about 20 minutes in water, about 20 minutes in ethanol (30/70 v/v) and rinsed with water three times to remove the ethanol. It was soaked in PBS for at least 30 minutes. Plasma in sodium EDTA (Bioreclamation or equivalent) was used. The Plasma (not pH-adjusted) was stored at −80° C. and thawed at room temperature before use. The stock solution of the compounds tested was at 200 μM in DMSO. The quench solution used was 50 nM of an internal standard in 100% ACN. To prepare a 2 μM solution of the compound tested in plasma, 5 μL of a 200 μM stock solution was added to 495 μL of blank plasma. 100 μL plasma was added with 2 μM of test compound into one side of the well. 100 μL of buffer (for plasma vs. buffer) was added into another side of the well. The 96-well plate was covered using an adhesive sealing film and incubated for 24 hours at 37° C. under slow rotation. This procedure was replicated for each compound. 50 μL of plasma sample was put into a 96 well plate, 50 μL of buffer was added. 50 μL of buffer was put into a 96 well plate. 50 μL of plasma was added. 300 μL of quench solution was added and the plate sealed and shaken for 15 minutes. The material was centrifuged for 30 minutes at 3000 RPM and ˜250 μL was transferred into a short plate. The samples were analyzed by LC/MS. The resulting data is shown in the last row of Table 3 as “% Free” which corresponds to the percentage of compound not protein bound.

[10] = 15 uM, DPX2 cells, % Emax relative to rifampicin, adjusted for DMSO background, read-out: PXR % inh at 15 uM (adjusted)

Chain of PXR (NR1I2) (O75469 whole entry): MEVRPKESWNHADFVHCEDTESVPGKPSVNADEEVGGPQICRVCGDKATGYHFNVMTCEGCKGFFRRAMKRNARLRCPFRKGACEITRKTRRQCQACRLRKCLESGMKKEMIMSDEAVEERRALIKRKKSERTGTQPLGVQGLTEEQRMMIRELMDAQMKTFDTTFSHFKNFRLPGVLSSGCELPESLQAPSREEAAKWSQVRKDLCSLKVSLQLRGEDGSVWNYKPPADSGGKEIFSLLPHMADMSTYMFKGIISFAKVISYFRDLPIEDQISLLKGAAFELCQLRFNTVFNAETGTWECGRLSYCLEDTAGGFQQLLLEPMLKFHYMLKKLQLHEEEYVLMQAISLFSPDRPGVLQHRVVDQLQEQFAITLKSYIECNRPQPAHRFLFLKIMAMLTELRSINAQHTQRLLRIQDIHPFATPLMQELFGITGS

EC50 [2] | inhibition at 24 h, 15 µM [7, 10] | inhibition at 24 h, 15 µM [7] | SMILES | EC50 [1] | Resistance fold shift N155H/Q148R vs. wild type [3] | Resistance fold shift E92Q/N155H vs. wild type [4] | Resistance fold shift E138K/Q148K vs. wild type [5] | Resistance fold shift G140S/Q148R vs. wild type [6] | CC50 at 5 days ([8]; mock-infected (uninfected)) | fraction unbound at 24 h, 2 µM [9] | CC50 at 5 days ([8]; mock-infected)
7.3 nM |  | 0% | O=C(NCc1c(F)cc(F)cc1F)c1cn2c(c(O)c1=O)C(=O)N[C@@H]1CCCC[C@H]12 [Compound 62] |  |  |  |  |  | 24200 nM |  | 
9.6 nM | 1% |  | CCN1C(=O)c2c(O)c(=O)c(C(=O)NCc3ccc(F)c(F)c3)cn2[C@H]2CCOC[C@H]21 [Compound 20] |  |  |  |  |  | 34100 nM |  | 
3.42 nM | 44% |  | CN1C(=O)c2c(O)c(=O)c(C(=O)NCc3c(F)cc(F)cc3F)cn2[C@H]2CCCC[C@H]21 [Compound 59] |  |  |  |  |  |  |  | 11400 nM
1.9 nM | 2% |  | O=C(NCc1c(F)cc(F)cc1F)c1cn2c(c(O)c1=O)C(=O)N[C@@H]1CCCC[C@@H]12 [Compound 60] |  |  |  |  |  | 13800 nM |  | 
4.93 nM | 24% |  | CCN1C(=O)c2c(O)c(=O)c(C(=O)NCc3c(F)cc(F)cc3F)cn2[C@H]2CCO[C@H]21 [Compound 26b] |  |  |  |  |  | 30900 nM |  | 
7.92 nM | 6% |  | CCN1C(=O)c2c(O)c(=O)c(C(=O)NCc3cc(Cl)c(F)cc3F)cn2[C@H]2CCOC[C@H]21 [Compound 15] |  |  |  |  |  | 14900 nM |  | 
4.28 nM | 11% |  | CCN1C(=O)c2c(O)c(=O)c(C(=O)NCc3ccc(F)c(F)c3F)cn2[C@H]2CCOC[C@H]21 [Compound 19] |  |  |  |  |  | 27800 nM |  | 
2.13 nM | 7% |  | CCN1C(=O)c2c(O)c(=O)c(C(=O)NCc3cccc(Cl)c3F)cn2[C@H]2CCOC[C@H]21 [Compound 16] |  |  |  |  |  | 11500 nM |  | 
10.7 nM | 5% |  | CCN1C(=O)c2c(O)c(=O)c(C(=O)NCc3ccc(F)c(Cl)c3F)cn2[C@@H]2CCOC[C@H]21 [Compound 13] |  |  |  |  |  | 7320 nM |  | 
3.45 nM | 6% |  | O=C(NCc1c(F)cc(F)cc1F)c1cn2c(c(O)c1=O)C(=O)N(C1CC1)[C@H]1OCC[C@H]12 (racemic) [Compound 21] |  |  |  |  |  |  |  | 31100 nM
3.07 nM | 10% |  | CCN1C(=O)c2c(O)c(=O)c(C(=O)NCc3c(F)cc(F)cc3F)cn2[C@H]2COCC[C@H]21 [Compound 56, (4aR,11aR)-5-ethyl-7-hydroxy-6,8-dioxo-N-(2,4,6-trifluorobenzyl)-1,3,4,4a,5,6,8,11a-octahydropyrano[4,3-e]pyrido[1,2-a]pyrazine-9-carboxamide] |  |  |  |  |  |  |  | 4490 nM
4.95 nM | 24% |  | CN1C(=O)c2c(O)c(=O)c(C(=O)NCc3ccc(F)c(Cl)c3F)cn2[C@H]2C[C@@H]3C[C@@H]3[C@H]21 [Compound 52, (6aR,6bS,7aS,8aS)-N-(3-chloro-2,4-difluorobenzyl)-4-hydroxy-6-methyl-3,5-dioxo-5,6,6a,6b,7,7a,8,8a-octahydro-3H-cyclopropa[4,5]cyclopenta[1,2-e]pyrido[1,2-a]pyrazine-2-carboxamide] |  |  |  |  |  |  |  | 2820 nM
7.26 nM | 33% |  | CCN1C(=O)c2c(O)c(=O)c(C(=O)NCc3c(F)cc(F)cc3F)cn2[C@@H]2COC[C@@H]21 [Compound 45] |  |  |  |  |  | 36700 nM |  | 
2.23 nM | 3% |  | O=C(NCc1c(F)cc(F)cc1F)c1cn2c(c(O)c1=O)C(=O)N(CC(F)F)[C@@H]1COCC[C@@H]12 [Compound 34] |  |  |  |  |  | 32300 nM |  | 
3.25 nM | 9% |  | CN1C(=O)c2c(O)c(=O)c(C(=O)NCc3c(F)cc(F)cc3F)cn2[C@@H]2CCOC[C@@H]21 [Compound 30] |  |  |  |  |  | 10400 nM |  | 
1.91 nM | 2% |  | C[C@@H]1OCC[C@H]2[C@@H]1N(C)C(=O)c1c(O)c(=O)c(C(=O)NCc3ccc(F)c(Cl)c3F)cn12 [Compound 55, (4S,4aS,11aS)-N-(3-chloro-2,4-difluorobenzyl)-7-hydroxy-4,5-dimethyl-6,8-dioxo-1,2,4,4a,5,6,8,11a-octahydropyrano[3,4-e]pyrido[1,2-a]pyrazine-9-carboxamide] |  |  |  |  |  |  |  | 9660 nM

SMILES | EC50 [2] | inhibition at 24 h, 15 µM [7, 10] | inhibition at 24 h, 15 µM [7] | EC50 [1] | Resistance fold shift N155H/Q148R vs. wild type [3] | Resistance fold shift E92Q/N155H vs. wild type [4] | Resistance fold shift E138K/Q148K vs. wild type [5] | Resistance fold shift G140S/Q148R vs. wild type [6] | CC50 at 5 days ([8]; mock-infected (uninfected)) | fraction unbound at 24 h, 2 µM [9] | CC50 at 5 days ([8]; mock-infected)
CCN1C(=O)c2c(O)c(=O)c(C(=O)NCc3c(F)cc(F)cc3F)cn2[C@H]2COC[C@H]21 [Compound 44] | 5.68 nM | 32% |  | 7.8 nM | 17.7 fold shift | 2.3 fold shift | 23.8 fold shift | 5.9 fold shift | 38000 nM | 0.068 | 
CCN1C(=O)c2c(O)c(=O)c(C(=O)NCc3ccc(F)cc3F)cn2[C@H]2CCOC[C@H]21 [Compound 41] | 2.88 nM | 21% |  | 2 nM | 1.8 fold shift | 2.1 fold shift | 3.5 fold shift | 2.9 fold shift | 27400 nM | 0.057 | 
CCN1C(=O)c2c(O)c(=O)c(C(=O)NCc3c(F)cc(F)cc3F)cn2[C@H]2CCOC[C@H]21 [Compound 33] | 2.84 nM | 12% |  | 2.5 nM | 2.2 fold shift | 0.9 fold shift | 5.9 fold shift | 2.5 fold shift | 31100 nM | 0.056 | 
